Reference: PubChem BioAssay AID1259408 (Genetic Toxicology Data Bank (GENE-TOX), 2018)
Active and inactive are the calls of the source. No rule for the calls is given here.

System: GENE-TOX genotoxicity assays, various organisms and cells
Assay: GENE-TOX mutagenicity studies
Conditions: for call: Assay Type: In vivo carcinogenicity studies, Assay Code: CCG+L
[1] = Species/Cell Type: Escherichia coli polA (W3119 vs P3478), Assay Type: Rec-assay, DNA effects (bacterial DNA repair), Assay Code: RE1T, Evaluation Type: Evaluation A (Pre-1980)
[2] = Species/Cell Type: Nonhuman, Evaluation Type: Evaluation A (Pre-1980)
[3] = Species/Cell Type: Nonhuman, Assay Type: Sister-chromatid exchange (SCE) in vitro, Assay Code: SC2+, Evaluation Type: Evaluation B (Post-1980)
[4] = Species/Cell Type: Salmonella typhimurium (one or more of the five standard strains: TA98, TA100, TA1535, TA1537, and TA1538), Assay Type: Histidine reverse gene mutation, Ames assay, Assay Code: SAL-, Evaluation Type: Evaluation A (Pre-1980)
[5] = Species/Cell Type: Salmonella typhimurium (one or more of the five standard strains: TA98, TA100, TA1535, TA1537, and TA1538), Assay Type: Histidine reverse gene mutation, Ames assay, Assay Code: SALT, Evaluation Type: Evaluation A (Pre-1980)
[6] = Species/Cell Type: Human lymphocytes, Assay Type: Sister-chromatid exchange (SCE) in vitro, Assay Code: SCL+D, Dose Response: With dose response, Evaluation Type: Evaluation B (Post-1980)
[7] = Species/Cell Type: Human, Assay Type: Sister-chromatid exchange (SCE) in vitro, Assay Code: SC1+D, Dose Response: With dose response, Evaluation Type: Evaluation B (Post-1980)
[8] = Species/Cell Type: Drosophila melanogaster, Assay Type: Sex-linked recessive lethal gene mutation, Assay Code: SRL+, Evaluation Type: Evaluation A (Pre-1980)
[9] = Species/Cell Type: Saccharomyces cerevisiae, Assay Type: Mitotic recombination or gene conversion, Assay Code: YEC+, Evaluation Type: Evaluation A (Pre-1980)
[10] = Species/Cell Type: Salmonella typhimurium (one or more of the five standard strains: TA98, TA100, TA1535, TA1537, and TA1538), Assay Type: Histidine reverse gene mutation, Ames assay, Assay Code: SAL+*, Activation: With metabolic activation, Evaluation Type: Evaluation A (Pre-1980)
[11] = Species/Cell Type: Bacillus subtilis (H17 vs M45), Assay Type: Rec-assay, spot test, DNA effects (bacterial DNA repair), Assay Code: REW+, Evaluation Type: Evaluation A (Pre-1980)
[12] = Species/Cell Type: Drosophila melanogaster, Assay Type: Sex-linked recessive lethal gene mutation, Assay Code: SRLT, Evaluation Type: Evaluation A (Pre-1980)
[13] = Species/Cell Type: Saccharomyces cerevisiae, Assay Type: Mitotic recombination or gene conversion, Assay Code: YEH-, Evaluation Type: Evaluation A (Pre-1980)
[14] = Species/Cell Type: Nonhuman, Assay Type: Sister-chromatid exchange (SCE) in vitro, Assay Code: SC2+D, Dose Response: With dose response, Evaluation Type: Evaluation B (Post-1980)
[15] = Species/Cell Type: Saccharomyces cerevisiae, Assay Type: Mitotic recombination or gene conversion, Assay Code: YEC-, Evaluation Type: Evaluation A (Pre-1980)

**Q.** What does the source list for `CCCN(CCC)c1c([N+](=O)[O-])cc(C(F)(F)F)cc1[N+](=O)[O-]`?
**A.** mutagenic call (Species/Cell Type: Bacillus subtilis (H17 vs M45), Assay Type: Rec-assay, spot test, DNA effects (bacterial DNA repair), Assay Code: REWT, Evaluation Type: Evaluation A (Pre-1980)): no conclusion; mutagenic call (Species/Cell Type: Drosophila melanogaster, Assay Type: Sex-linked recessive lethal gene mutation, Assay Code: SRL-, Evaluation Type: Evaluation A (Pre-1980)): inactive; negative; mutagenic call (Species/Cell Type: Escherichia coli WP2 UVRA, Assay Type: Tryptophan reverse gene mutation, Assay Code: WPU-*, Activation: With metabolic activation, Evaluation Type: Evaluation A (Pre-1980)): inactive; negative; mutagenic call [1]: no conclusion; mutagenic call (Species/Cell Type: Human diploid fibroblasts, Assay Type: Unscheduled DNA synthesis (UDS) in vitro, DNA effects, Assay Code: UDH-, Evaluation Type: Evaluation A (Pre-1980)): inactive; negative; mutagenic call (Species/Cell Type: Neurospora crassa, Assay Type: Aneuploidy, chromosome aberrations, Assay Code: NEN+, Evaluation Type: Evaluation A (Pre-1980)): active; positive; call [2]: active; positive; mutagenic call [3]: active; positive; mutagenic call (Species/Cell Type: Saccharomyces cerevisiae, Assay Type: Mitotic recombination or gene conversion, Assay Code: YEH+/-*, Activation: With metabolic activation, Evaluation Type: Evaluation A (Pre-1980)): inactive; positive without activation, negative with activation; mutagenic call [4]: inactive; negative; mutagenic call (Species/Cell Type: Vicia faba, Assay Type: Chromosome aberrations, Assay Code: VIC+, Evaluation Type: Evaluation A (Pre-1980)): active; positive

**Q.** For `O=C1c2c(O)ccc(O)c2C(=O)c2c(NCCc3ccccc3)ccc(NCCc3ccccc3)c21`, which mutagenic call (Species/Cell Type: Salmonella typhimurium (one or more of the five standard strains: TA98, TA100, TA1535, TA1537, and TA1538), Assay Type: Histidine reverse gene mutation, Ames assay, Assay Code: SAL+/-*, Activation: With metabolic activation, Evaluation Type: Evaluation A (Pre-1980)) is on record?
**A.** inactive; positive without activation, negative with activation

**Q.** With `CCCCOc1ccc(CC(=O)NO)cc1` as the molecule, how does the mutagenic call (Species/Cell Type: Human lymphocytes, Assay Type: Sister-chromatid exchange (SCE) in vitro, Assay Code: SCLT, Evaluation Type: Evaluation B (Post-1980)) read?
**A.** no conclusion

**Q.** What about the mutagenic call (Species/Cell Type: Human, Assay Type: Sister-chromatid exchange (SCE) in vitro, Assay Code: SC1T, Evaluation Type: Evaluation B (Post-1980)) of the same molecule?
**A.** no conclusion

**Q.** What about the mutagenic call [3] of the same molecule?
**A.** active; positive

**Q.** And the mutagenic call [5]?
**A.** no conclusion

**Q.** For `C[As+](C)(C)CC(=O)[O-]`, which mutagenic call (Species/Cell Type: Nonhuman, Assay Type: Sister-chromatid exchange (SCE) in vitro, Assay Code: SC2T, Evaluation Type: Evaluation B (Post-1980)) is on record?
**A.** no conclusion

**Q.** How did the mutagenic call (Species/Cell Type: Salmonella typhimurium (one or more of the five standard strains: TA98, TA100, TA1535, TA1537, and TA1538), Assay Type: Histidine reverse gene mutation, Ames assay, Assay Code: SAL+, Evaluation Type: Evaluation A (Pre-1980)) turn out when `O=C(O)/C=C/c1ccc([N+](=O)[O-])o1` was run?
**A.** active; positive

**Q.** `C=Cc1cccc(C)c1` was tested. Which mutagenic call [6] did it give?
**A.** active; positive

**Q.** What about the mutagenic call [7] of the same molecule?
**A.** active; positive

**Q.** What does the source list for `O=NN(CCCl)C(=O)NCCNC(=O)N(CCCl)N=O`?
**A.** mutagenic call [8]: active; positive; mutagenic call [9]: active; positive

**Q.** For `O=C1CCCc2c1ccc1c2ccc2ccccc21`, which mutagenic call [10] is on record?
**A.** active; positive

**Q.** `Oc1c(Cl)c(Cl)c(Cl)c(Cl)c1Cl` was tested. Which mutagenic call [11] did it give?
**A.** active; positive

**Q.** What about the mutagenic call [12] of the same molecule?
**A.** no conclusion

**Q.** And the mutagenic call (Species/Cell Type: Mouse, Sex: Female, Assay Type: Spot test, gene mutation, Assay Code: MST-, Evaluation Type: Evaluation A (Pre-1980))?
**A.** inactive; negative

**Q.** And the mutagenic call (Species/Cell Type: Saccharomyces cerevisiae, Assay Type: Forward gene mutation, Assay Code: YEF+, Evaluation Type: Evaluation A (Pre-1980))?
**A.** active; positive

**Q.** What about the mutagenic call [9] of the same molecule?
**A.** active; positive

**Q.** And the mutagenic call [13]?
**A.** inactive; negative

**Q.** What about the mutagenic call [4] of the same molecule?
**A.** inactive; negative

**Q.** What about the mutagenic call (Species/Cell Type: Salmonella typhimurium, Assay Type: Forward and reverse gene mutation, host-mediated assay, Assay Code: HMA-, Evaluation Type: Evaluation A (Pre-1980)) of the same molecule?
**A.** inactive; negative

**Q.** What about the mutagenic call (Species/Cell Type: Syrian hamster embryo (SA7/SHE) cells, Assay Type: Cell transformation, viral enhanced, Assay Code: CT7+, Evaluation Type: Evaluation A (Pre-1980)) of the same molecule?
**A.** active; positive

**Q.** How did the mutagenic call [10] turn out when `c1ccc2c(c1)Cc1c(c3ccccc3c3ccccc13)C2` was run?
**A.** active; positive

**Q.** For `O=O`, which mutagenic call (Species/Cell Type: Chinese hamster lung (V79) cells, Assay Type: Forward gene mutation at the HPRT or ouabain locus, Assay Code: V79+, Evaluation Type: Evaluation A (Pre-1980)) is on record?
**A.** active; positive

**Q.** What does the source list for `Clc1ccc(C(c2ccc(Cl)cc2)C(Cl)Cl)cc1`?
**A.** mutagenic call [12]: no conclusion; mutagenic call [1]: no conclusion; mutagenic call (Species/Cell Type: Nonhuman, Assay Type: Chromosome aberrations in vitro, Assay Code: CY&+, Evaluation Type: Evaluation A (Pre-1980)): active; positive; mutagenic call (Species/Cell Type: Serratia marcesens, Assay Type: Reverse gene mutation, host-mediated assay, Assay Code: HMC+, Evaluation Type: Evaluation A (Pre-1980)): active; positive

**Q.** How did the mutagenic call (Species/Cell Type: Vicia faba, Assay Type: Chromosome aberrations, Assay Code: VIC-, Evaluation Type: Evaluation A (Pre-1980)) turn out when `CN[C@@H]1[C@H](O[C@H]2[C@H](O[C@H]3[C@H](O)[C@@H](O)[C@H](N=C(N)N)[C@@H](O)[C@@H]3N=C(N)N)O[C@@H](C)[C@]2(O)CO)O[C@@H](CO)[C@H](O)[C@H]1O` was run?
**A.** inactive; negative

**Q.** For `CC/C(=C(\c1ccccc1)c1ccc(OCCN(C)C)cc1)c1ccccc1`, which mutagenic call (Species/Cell Type: Human, Sex: Male, Assay Type: Sperm morphology, Assay Code: SPHT, Evaluation Type: Evaluation A (Pre-1980)) is on record?
**A.** no conclusion

**Q.** `O=P(N1C2COCC21)(N1C2COCC21)N1C2COCC21` (configuration not stated) was tested. Which mutagenic call [8] did it give?
**A.** active; positive

**Q.** Which mutagenic call [11] does the source give for `O=[N+]([O-])[O-].O=[N+]([O-])[O-].O=[N+]([O-])[O-].[Rh+3]` here?
**A.** active; positive

**Q.** With `c1ccc2cnccc2c1` as the molecule, how does the mutagenic call [5] read?
**A.** no conclusion

**Q.** What does the source list for `CCOC(=O)NO`?
**A.** mutagenic call [12]: no conclusion; mutagenic call (Species/Cell Type: Escherichia coli polA (W3119 vs P3478), Assay Type: Rec-assay, DNA effects (bacterial DNA repair), Assay Code: RE1+, Evaluation Type: Evaluation A (Pre-1980)): active; positive; mutagenic call (Species/Cell Type: Human lymphocytes or leukocytes, Assay Type: Chromosome aberrations in vitro, Assay Code: CY7+, Evaluation Type: Evaluation A (Pre-1980)): active; positive; mutagenic call [6]: active; positive; mutagenic call [7]: active; positive; mutagenic call (Species/Cell Type: Mammalian polychromatic erythrocytes, Assay Type: Micronucleus test, chromosome aberrations, Assay Code: MNT+, Evaluation Type: Evaluation A (Pre-1980)): active; positive; mutagenic call (Species/Cell Type: Mouse embryo (AKR/ME) cells, Assay Type: Cell transformation, Assay Code: CTK+, Evaluation Type: Evaluation A (Pre-1980)): active; positive; call [2]: active; positive; mutagenic call [14]: active; positive; mutagenic call (Species/Cell Type: Nonhuman, Assay Type: Sister-chromatid exchange (SCE) in vivo, Assay Code: SC3+D, Dose Response: With dose response, Evaluation Type: Evaluation B (Post-1980)): active; positive

**Q.** How did the mutagenic call (Species/Cell Type: Drosophila melanogaster, Assay Type: Aneuploidy, sex chromosome gain, chromosome aberrations, Assay Code: DAGT, Evaluation Type: Evaluation A (Pre-1980)) turn out when `OCCO` was run?
**A.** no conclusion

**Q.** And the mutagenic call (Species/Cell Type: Drosophila melanogaster, Assay Type: Aneuploidy, whole sex chromosome loss, chromosome aberrations, Assay Code: DACT, Evaluation Type: Evaluation A (Pre-1980))?
**A.** no conclusion

**Q.** What about the mutagenic call (Species/Cell Type: Neurospora crassa, Assay Type: Aneuploidy, chromosome aberrations, Assay Code: NEN-, Evaluation Type: Evaluation A (Pre-1980)) of the same molecule?
**A.** inactive; negative

**Q.** What about the mutagenic call [4] of the same molecule?
**A.** inactive; negative

**Q.** And the mutagenic call (Species/Cell Type: Syrian hamster embryo (SA7/SHE) cells, Assay Type: Cell transformation, viral enhanced, Assay Code: CT7-, Evaluation Type: Evaluation A (Pre-1980))?
**A.** inactive; negative

**Q.** `CCCCCc1cc(O)c2c(c1)OC(C)(C)[C@@H]1CC=C(C)C[C@@H]21` was tested. Which mutagenic call (Species/Cell Type: Fischer rat embryo (RLV/1706) cells, Assay Type: Cell transformation, viral enhanced, Assay Code: CTR-, Evaluation Type: Evaluation A (Pre-1980)) did it give?
**A.** inactive; negative

**Q.** And the mutagenic call (Species/Cell Type: Human lymphocytes, Assay Type: Micronucleus test in vitro, chromosome aberrations, Assay Code: MN7+, Evaluation Type: Evaluation A (Pre-1980))?
**A.** active; positive

**Q.** How did the mutagenic call (Species/Cell Type: Mammalian oocytes or early embryo, Assay Type: Chromosome aberrations in vivo, Assay Code: CYO-, Evaluation Type: Evaluation A (Pre-1980)) turn out when `COC([CH2][Hg+])CNC(=O)C1CCC(C)(C(=O)[O-])C1(C)C.O=C([O-])C[S-].[H+].[H+]` (configuration not stated) was run?
**A.** inactive; negative

**Q.** With `C=CC=O` as the molecule, how does the mutagenic call [14] read?
**A.** active; positive

**Q.** `Nc1cnn(-c2ccccc2)c(=O)c1Cl` was tested. Which mutagenic call [15] did it give?
**A.** inactive; negative

**Q.** How did the mutagenic call (Species/Cell Type: Saccharomyces cerevisiae, Assay Type: Forward gene mutation, Assay Code: YEF-, Evaluation Type: Evaluation A (Pre-1980)) turn out when `Clc1ccc(Oc2c(Cl)cc(Cl)cc2Cl)cc1` was run?
**A.** inactive; negative

**Q.** What about the mutagenic call [15] of the same molecule?
**A.** inactive; negative

**Q.** What about the mutagenic call [13] of the same molecule?
**A.** inactive; negative

**Q.** For `CN(N=O)C(=O)Oc1cccc2c1OC(C)(C)C2`, which mutagenic call [14] is on record?
**A.** active; positive
